Key:
Conditions in all cases: incubation time: 72 h
MDA-MB-453 [1] = experiment: drug sensitivity score (DSS), CellTiter-Blue viability (DSS (AUC-based score)); higher = stronger viability inhibition; extreme values may be limits of the assay
Method: (§1)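 DSRT with the CellTiter-Blue (resazurin reduction) viability readout, fluorescence 560/590 nm, 72 h incubation. Plates were normalised to DMSO and benzethonium chloride controls. DSS is computed from the area under the fitted dose-response curve (5 or 9 concentrations).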

DU-4475 = experiment: as above
Method: as §1

CAL-51 [2] = experiment: as above
Method: as §1

BT-474 = experiment: as above
Method: as §1

HCC1143 = experiment: as above
Method: as §1

CAL-85-1 = experiment: as above
Method: as §1

CAL-148 [3] = experiment: as above
Method: as §1

BT-549 = experiment: as above
Method: as §1

SK-BR-3 = experiment: as above
Method: as §1

HCC1937 [4] = experiment: as above
Method: as §1

MDA-MB-436 [5] = experiment: as above
Method: as §1

Hs578T = experiment: as above
Method: as §1

MDA-MB-468 = experiment: as above
Method: as §1

CAL-120 = experiment: as above
Method: as §1

MDA-MB-231 = experiment: as above
Method: as §1

HDQ-P1 [6] = experiment: as above
Method: as §1

MFM-223 [7] = experiment: as above
Method: as §1

HCC1599 [8] = experiment: as above
Method: as §1

MDA-MB-453 [9] = experiment: normalised viability (% of control), CellTiter-Blue; higher = more viable cells (about 100 = DMSO control)
Procedure, shortened: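 The reported quantity is normalised viability at a single listed concentration of the series. Compound in 5 µl medium was pre-dispensed into 384-well plates and 20 µl of breast cancer cell suspension was added for 72 h. A 2 h, 37 °C CellTiter-Blue step (2.5 µl) preceded fluorescence reading at 560/590 nm, and plates were normalised to vehicle (100) and a positive kill control (0).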

MDA-MB-453 [10] = experiment: normalised viability (% of control), CellTiter-Blue; higher = more viable cells (about 100 = DMSO control); remark: listed apart in the source
Method: (§2)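 DSRT, CellTiter-Blue viability, 72 h incubation. Signal is normalised to DMSO and benzethonium chloride controls. Value is the normalised response at dose 3.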

CAL-51 [11] = experiment: as above
Method: as §2

CAL-148 [12] = experiment: as above
Method: as §2

HCC1937 [13] = experiment: as above
Method: as §2

MDA-MB-436 [14] = experiment: as above
Method: as §2

HDQ-P1 [15] = experiment: as above
Method: as §2

MFM-223 [16] = experiment: as above
Method: as §2

HCC1599 [17] = experiment: as above
Method: as §2

| SMILES | drug sensitivity score (MDA-MB-453 [1]) | drug sensitivity score (DU-4475) | drug sensitivity score (CAL-51 [2]) | drug sensitivity score (BT-474) | drug sensitivity score (HCC1143) | drug sensitivity score (CAL-85-1) | drug sensitivity score (CAL-148 [3]) | drug sensitivity score (BT-549) | drug sensitivity score (SK-BR-3) | drug sensitivity score (HCC1937 [4]) | drug sensitivity score (MDA-MB-436 [5]) | drug sensitivity score (Hs578T) | drug sensitivity score (MDA-MB-468) | drug sensitivity score (CAL-120) | drug sensitivity score (MDA-MB-231) | drug sensitivity score (HDQ-P1 [6]) | drug sensitivity score (MFM-223 [7]) | drug sensitivity score (HCC1599 [8]) | normalised viability (MDA-MB-453 [9]; 10000 nM) [%] | normalised viability (MDA-MB-453 [10]; 10 nM) [%] | normalised viability (CAL-51 [11]; 10 nM) [%] | normalised viability (CAL-148 [12]; 10 nM) [%] | normalised viability (HCC1937 [13]; 100 nM) [%] | normalised viability (MDA-MB-436 [14]; 100 nM) [%] | normalised viability (HDQ-P1 [15]; 10 nM) [%] | normalised viability (MFM-223 [16]; 100 nM) [%] | normalised viability (HCC1599 [17]; 100 nM) [%] | normalised viability (MDA-MB-453 [9]; 1000 nM) [%] | normalised viability (MDA-MB-453 [10]; 1 nM) [%] | normalised viability (CAL-51 [11]; 1 nM) [%] | normalised viability (CAL-148 [12]; 1 nM) [%] | normalised viability (HCC1937 [13]; 10 nM) [%] | normalised viability (MDA-MB-436 [14]; 10 nM) [%] | normalised viability (HDQ-P1 [15]; 1 nM) [%] | normalised viability (MFM-223 [16]; 10 nM) [%] | normalised viability (HCC1599 [17]; 10 nM) [%] |
| --- | --- | --- | --- | --- | --- | --- | --- | --- | --- | --- | --- | --- | --- | --- | --- | --- | --- | --- | --- | --- | --- | --- | --- | --- | --- | --- | --- | --- | --- | --- | --- | --- | --- | --- | --- | --- |
| CNNCc1ccc(C(=O)NC(C)C)cc1 [Procarbazine] | 0 | 0 | 0 | 0 | 0 | 0 | 0 | 0 | 0 | 0 | 0.866 | 0 | 0 | 0 | 0 | 0 | 0 | 0 | 110 | 105 | 109 | 98.1 | 85.3 | 97 | 128 | 92.8 | 94.8 |  |  |  |  |  |  |  |  |  |
| CN(C)C[C@@H]1CCn2cc(c3ccccc32)C2=C(C(=O)NC2=O)c2cn(c3ccccc23)CCO1 [Ruboxistaurin] | 4.14 | 6.32 | 4.59 | 6.23 | 0 | 0 | 3.06 | 3.74 | 6.94 | 6.14 | 10.7 | 1.19 | 6.34 | 1.65 | 4.1 | 3.47 | 6.81 | 3.54 | 0.78 | 96.7 | 91.8 | 112 | 85.3 | 91.6 | 82.6 | 105 | 111 |  |  |  |  |  |  |  |  |  |
| CN1CCN(CCOc2cc(OC3CCOCC3)c3c(Nc4c(Cl)ccc5c4OCO5)ncnc3c2)CC1 [Saracatinib] | 4.51 | 0 | 8.13 | 5.44 | 0 | 9.72 | 1.9 | 5 | 3.37 | 0 | 0.375 | 0 | 4.05 | 4.64 | 7.77 | 11.5 | 0 | 0.195 | 35.6 | 105 | 106 | 80.7 | 96.2 | 109 | 104 | 99.6 | 108 |  |  |  |  |  |  |  |  |  |
| Cn1cncc1[C@@](N)(c1ccc(Cl)cc1)c1ccc2c(c1)c(-c1cccc(Cl)c1)cc(=O)n2C [Tipifarnib] | 10.5 | 18.5 | 9.74 | 5.35 | 14.7 | 6.87 | 18.8 | 5.66 | 12.6 | 15.3 | 0 | 5.75 | 3.09 | 12.4 | 11.7 | 13.3 | 7.2 | 9.57 | 19.9 | 93 | 99.9 | 83.2 | 64.9 | 87.9 | 89.7 | 70.3 | 72.7 |  |  |  |  |  |  |  |  |  |
| O=C1NC(=O)[C@@H](c2cn3c4c(cccc24)CCC3)[C@@H]1c1c[nH]c2ccccc12 [Tivantinib] | 6.08 | 1.35 | 2.15 | 1.07 | 0 | 4.04 | 1.69 | 4.05 | 2.61 | 8.31 | 7.87 | 2.65 | 1.21 | 4.4 | 1.91 | 0 | 0 | 0.607 |  |  |  |  |  |  |  |  |  | 31 | 108 | 106 | 107 | 101 | 101 | 109 | 105 | 98.4 |
